How the values were obtained:
dopamine D1 receptor = molecular target: T1, dopamine D1 receptor (Homo sapiens, UniProt P21728); assay: Radioligand binding assay, human recombinant receptor in CHO cells; conditions: read-out: % Inhibition (mean) of control specific binding
T1 construct: expressed in transfected cells; host or cells: CHO

dopamine D2S receptor = molecular target: T2, dopamine D2S receptor (Homo sapiens, UniProt P14416); assay: Radioligand binding assay, human recombinant receptor in HEK cells; conditions: read-out: % Inhibition (mean) of control specific binding
T2 construct: expressed in transfected cells; host or cells: HEK-293
T2 sequence (P14416 1-414 isoform P14416-2): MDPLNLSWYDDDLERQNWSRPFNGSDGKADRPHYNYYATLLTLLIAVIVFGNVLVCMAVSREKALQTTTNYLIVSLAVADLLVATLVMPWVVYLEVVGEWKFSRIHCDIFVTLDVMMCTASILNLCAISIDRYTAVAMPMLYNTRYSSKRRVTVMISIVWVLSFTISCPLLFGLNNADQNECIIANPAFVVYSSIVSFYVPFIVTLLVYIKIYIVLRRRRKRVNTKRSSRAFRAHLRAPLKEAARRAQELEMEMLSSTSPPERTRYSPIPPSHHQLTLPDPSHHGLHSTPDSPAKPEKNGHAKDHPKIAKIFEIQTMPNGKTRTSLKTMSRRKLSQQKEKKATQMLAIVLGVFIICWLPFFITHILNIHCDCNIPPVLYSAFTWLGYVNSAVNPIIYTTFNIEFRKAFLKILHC

[1] = molecular target: T3, serotonin 5-HT2A receptor (Homo sapiens, UniProt P28223); assay: as above; conditions: read-out: % Inhibition (mean) of control specific binding
T3 construct: expressed in transfected cells; host or cells: HEK-293
T3 sequence (P28223 whole entry): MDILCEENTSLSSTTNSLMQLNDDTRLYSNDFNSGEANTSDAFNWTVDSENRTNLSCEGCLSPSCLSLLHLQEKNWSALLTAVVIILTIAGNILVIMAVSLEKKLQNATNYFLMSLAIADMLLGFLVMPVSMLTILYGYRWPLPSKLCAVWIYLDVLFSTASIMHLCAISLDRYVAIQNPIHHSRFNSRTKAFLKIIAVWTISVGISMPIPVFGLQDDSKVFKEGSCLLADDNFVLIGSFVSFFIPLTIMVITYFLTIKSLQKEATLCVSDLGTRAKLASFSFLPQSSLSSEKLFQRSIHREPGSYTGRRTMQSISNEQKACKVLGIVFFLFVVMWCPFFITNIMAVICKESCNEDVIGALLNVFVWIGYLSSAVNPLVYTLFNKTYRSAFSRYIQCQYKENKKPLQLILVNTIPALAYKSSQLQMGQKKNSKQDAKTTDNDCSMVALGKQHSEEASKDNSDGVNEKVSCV

[2] = molecular target: T4, serotonin transporter (SERT) (Homo sapiens, UniProt P31645); assay: Radioligand binding assay, human recombinant transporter in CHO cells; conditions: read-out: % Inhibition (mean) of control specific binding
T4 construct: expressed in transfected cells; host or cells: CHO
T4 sequence (P31645 whole entry): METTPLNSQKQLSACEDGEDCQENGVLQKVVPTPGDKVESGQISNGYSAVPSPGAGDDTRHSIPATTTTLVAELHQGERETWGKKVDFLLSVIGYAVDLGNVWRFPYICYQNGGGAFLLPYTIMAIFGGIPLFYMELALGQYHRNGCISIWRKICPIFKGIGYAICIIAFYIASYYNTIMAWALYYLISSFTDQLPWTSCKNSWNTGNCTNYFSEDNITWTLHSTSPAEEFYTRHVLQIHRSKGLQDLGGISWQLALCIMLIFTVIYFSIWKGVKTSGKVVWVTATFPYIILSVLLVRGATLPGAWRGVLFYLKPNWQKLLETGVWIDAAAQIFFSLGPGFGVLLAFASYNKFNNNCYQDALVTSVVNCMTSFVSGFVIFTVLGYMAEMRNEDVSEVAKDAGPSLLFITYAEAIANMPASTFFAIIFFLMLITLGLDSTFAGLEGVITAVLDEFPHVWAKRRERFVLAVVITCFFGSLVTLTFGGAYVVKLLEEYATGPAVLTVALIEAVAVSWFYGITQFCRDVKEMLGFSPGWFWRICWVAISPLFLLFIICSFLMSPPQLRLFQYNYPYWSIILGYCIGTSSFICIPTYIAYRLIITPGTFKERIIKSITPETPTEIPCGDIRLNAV

[3] = rat, in vivo, po, 10 mg/kg
in vivo = conditions: rat
[4] = system: protein phosphorylation (ERK1, ERK2, Glul, NR2B and TH) in mice nucleus accumbens; conditions: cited from earlier work
mouse formalin paw test = conditions: subcutaneous paw pre-treatment 30 minutes prior to […] formalin, three doses; cited from earlier work
[5] = molecular target: serotonin 5-HT2 receptor family; conditions: mice, oral dosing, subcutaneous DOI; cited from earlier work
[6] = system: mouse marble-burying model for OCD; conditions: positive control, after 30 minutes; cited from earlier work
male Sprague-Dawley rats = conditions: cited from earlier work; for tolerance during repeated dosing: subcutaneous dosing for 28 days, 0.3 and 3 mg/kg; for physical dependence upon cessation of dosing: withdrawal after 28 days subcutaneous dosing

T1 sequence (P21728 whole entry): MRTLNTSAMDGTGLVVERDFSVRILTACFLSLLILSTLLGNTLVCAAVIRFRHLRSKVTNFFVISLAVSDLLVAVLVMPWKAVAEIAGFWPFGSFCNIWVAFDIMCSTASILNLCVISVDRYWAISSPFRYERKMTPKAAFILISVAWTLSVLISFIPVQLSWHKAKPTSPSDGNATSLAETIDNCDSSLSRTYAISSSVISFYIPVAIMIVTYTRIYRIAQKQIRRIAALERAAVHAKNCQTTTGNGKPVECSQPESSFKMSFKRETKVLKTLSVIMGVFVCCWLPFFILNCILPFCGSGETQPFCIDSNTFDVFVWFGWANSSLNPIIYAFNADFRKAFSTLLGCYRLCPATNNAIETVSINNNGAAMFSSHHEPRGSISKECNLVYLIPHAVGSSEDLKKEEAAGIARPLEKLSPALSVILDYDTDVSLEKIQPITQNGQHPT

Molecule: [2H]C1([2H])C(=O)Nc2cccc3c2N1[C@H]1CCN(CCCOc2ccc(F)cc2)C[C@@H]31 [Example 1, (6bR,10aS)-1,1-d2-8-(3-(4-fluorophenoxy)propyl)-6b,7,8,9,10,10a-hexahydro-1H-pyrido[3′,4′:4,5]pyrrolo[1,2,3-de]quinoxalin-2(3H)-one]
- inhibition at 0.1 µM (dopamine D1 receptor): 36.6%
- inhibition at 0.3 µM (dopamine D2S receptor): 47.5%
- inhibition at 0.01 µM [1]: 64.7%
- inhibition at 1 µM [2]: 34.5%

Molecule: [2H]C([2H])(Oc1ccc(F)cc1)C([2H])([2H])C([2H])([2H])N1CC[C@H]2[C@@H](C1)c1cccc3c1N2CC(=O)N3 [Example 2, (6bR,10aS)-8-(1,1,2,2,3,3-d6-3-(4-fluorophenoxy)propyl)-6b,7,8,9,10,10a-hexahydro-1H-pyrido[3′,4′: 4,5]pyrrolo[1,2,3-de]quinoxalin-2(3H)-one]
- plasma concentration [3]: BLQ
- AUC (in vivo; po, 10 mg/kg): 3660 ng·h/mL
- Cmax (in vivo; po, 10 mg/kg): 64.6 ng/mL
- Tmax (in vivo; po, 10 mg/kg): 6 h
- concentration at 0.033 h (in vivo; po, 10 mg/kg): 1 ng/mL
- concentration at 0.083 h (in vivo; po, 10 mg/kg): 10.6 ng/mL
- concentration at 0.5 h (in vivo; po, 10 mg/kg): 55.7 ng/mL
- concentration at 1 h (in vivo; po, 10 mg/kg): 72.3 ng/mL
- concentration at 2 h (in vivo; po, 10 mg/kg): 143 ng/mL
- concentration at 6 h (in vivo; po, 10 mg/kg): 260 ng/mL
- concentration at 8 h (in vivo; po, 10 mg/kg): 200 ng/mL
- concentration at 12 h (in vivo; po, 10 mg/kg): 196 ng/mL
- concentration at 24 h (in vivo; po, 10 mg/kg): 3 ng/mL
- concentration at […] (in vivo; po, 10 mg/kg): 56.9 ng/mL
- AUC (in vivo; sc, 3 mg/kg): 492 ng·h/mL
- Cmax (in vivo; sc, 3 mg/kg): 81.4 ng/mL
- Tmax (in vivo; sc, 3 mg/kg): 1 h
- concentration at 0.033 h (in vivo; sc, 3 mg/kg): 6 ng/mL
- concentration at 0.083 h (in vivo; sc, 3 mg/kg): 27.5 ng/mL
- concentration at 0.5 h (in vivo; sc, 3 mg/kg): 80 ng/mL
- concentration at 1 h (in vivo; sc, 3 mg/kg): 81.4 ng/mL
- concentration at 2 h (in vivo; sc, 3 mg/kg): 65.2 ng/mL
- concentration at 6 h (in vivo; sc, 3 mg/kg): 15 ng/mL
- concentration at 8 h (in vivo; sc, 3 mg/kg): 6.7 ng/mL
- concentration at 12 h (in vivo; sc, 3 mg/kg): 3.9 ng/mL
- concentration at 24 h (in vivo; sc, 3 mg/kg): 2.1 ng/mL
- concentration at 48 h (in vivo; sc, 3 mg/kg): 2 ng/mL
- concentration at 72 h (in vivo; sc, 3 mg/kg): 1 ng/mL
- concentration at […] (in vivo; sc, 3 mg/kg): 48.2 ng/mL

Molecule: [2H]C([2H])(CC([2H])([2H])N1CC[C@H]2[C@@H](C1)c1cccc3c1N2CC(=O)N3)Oc1ccc(F)cc1 [Example 3, (6bR,10aS)-8-(1,1,3,3-d4-3-(4-fluorophenoxy)propyl)-6b,7,8,9,10,10a-hexahydro-1H-pyrido[3′,4′:4,5]pyrrolo[1,2,3-de]quinoxalin-2(3H)-one]
- inhibition at 0.1 µM (dopamine D1 receptor): 36.3%
- inhibition at 0.3 µM (dopamine D2S receptor): 55.1%
- inhibition at 0.01 µM [1]: 64.1%
- inhibition at 1 µM [2]: 31.8%

Molecule: [2H]c1c([2H])c(OCCCN2CC[C@H]3[C@@H](C2)c2cccc4c2N3CC(=O)N4)c([2H])c([2H])c1F [Example 6, (6bR,10aS)-8-(3-(2,3,5,6-tetradeuterio-4-fluorophenoxy)propyl)-6b,7,8,9,10,10a-hexahydro-1H-pyrido[3′,4′:4,5]pyrrolo[1,2,3-de]quinoxalin-2(3H)-one]
- inhibition at 0.1 µM (dopamine D1 receptor): 32.6%
- inhibition at 0.3 µM (dopamine D2S receptor): 48.7%
- inhibition at 0.01 µM [1]: 60.2%
- inhibition at 1 µM [2]: 29.1%

Molecule: [2H]C([2H])(CCN1CC[C@H]2[C@@H](C1)c1cccc3c1N2CC(=O)N3)Oc1ccc(F)cc1 [Example 7, (6bR,10aS)-8-(3,3-dideuterio-3-(4-fluorophenoxy)propyl)-6b,7,8,9,10,10a-hexahydro-1H-pyrido[3′,4′:4,5]pyrrolo[1,2,3-de]quinoxalin-2(3H)-one]
- inhibition at 0.1 µM (dopamine D1 receptor): 34.8%
- inhibition at 0.3 µM (dopamine D2S receptor): 53.3%
- inhibition at 0.01 µM [1]: 63.5%
- inhibition at 1 µM [2]: 31.1%

Molecule: [2H]c1c([2H])c(OC([2H])([2H])C([2H])([2H])C([2H])([2H])N2CC[C@H]3[C@@H](C2)c2cccc4c2N3C([2H])([2H])C(=O)N4)c([2H])c([2H])c1F [Example 8, (6bR,10aS)-1,1-dideuterio-8-(1,1,2,2,3,3-hexadeuterio-3-(2,3,5,6-tetradeuterio-4-fluorophenoxy)propyl)-6b,7,8,9,10,10a-hexahydro-1H-pyrido[3′,4′:4,5]pyrrolo[1,2,3-de]quinoxalin-2(3H)-one]
- plasma concentration [3]: BLQ
- AUC (in vivo; po, 10 mg/kg): 3390 ng·h/mL
- Cmax (in vivo; po, 10 mg/kg): 68.4 ng/mL
- Tmax (in vivo; po, 10 mg/kg): 6 h
- concentration at 0.033 h (in vivo; po, 10 mg/kg): 1.3 ng/mL
- concentration at 0.083 h (in vivo; po, 10 mg/kg): 8.6 ng/mL
- concentration at 0.5 h (in vivo; po, 10 mg/kg): 45.8 ng/mL
- concentration at 1 h (in vivo; po, 10 mg/kg): 62.4 ng/mL
- concentration at 2 h (in vivo; po, 10 mg/kg): 133 ng/mL
- concentration at 6 h (in vivo; po, 10 mg/kg): 245 ng/mL
- concentration at 8 h (in vivo; po, 10 mg/kg): 187 ng/mL
- concentration at 12 h (in vivo; po, 10 mg/kg): 181 ng/mL
- concentration at 24 h (in vivo; po, 10 mg/kg): 3.3 ng/mL
- concentration at […] (in vivo; po, 10 mg/kg): 46.7 ng/mL
- AUC (in vivo; sc, 3 mg/kg): 494 ng·h/mL
- Cmax (in vivo; sc, 3 mg/kg): 78.9 ng/mL
- Tmax (in vivo; sc, 3 mg/kg): 1 h
- concentration at 0.033 h (in vivo; sc, 3 mg/kg): 5.7 ng/mL
- concentration at 0.083 h (in vivo; sc, 3 mg/kg): 25.7 ng/mL
- concentration at 0.5 h (in vivo; sc, 3 mg/kg): 76.4 ng/mL
- concentration at 1 h (in vivo; sc, 3 mg/kg): 78.9 ng/mL
- concentration at 2 h (in vivo; sc, 3 mg/kg): 62.9 ng/mL
- concentration at 6 h (in vivo; sc, 3 mg/kg): 14.1 ng/mL
- concentration at 8 h (in vivo; sc, 3 mg/kg): 6.5 ng/mL
- concentration at 12 h (in vivo; sc, 3 mg/kg): 4.1 ng/mL
- concentration at 24 h (in vivo; sc, 3 mg/kg): 2.1 ng/mL
- concentration at 48 h (in vivo; sc, 3 mg/kg): 2.4 ng/mL
- concentration at 72 h (in vivo; sc, 3 mg/kg): 1.4 ng/mL
- concentration at […] (in vivo; sc, 3 mg/kg): 46 ng/mL

Molecule: [2H]C1([2H])C(=O)Nc2cccc3c2N1[C@H]1CCN(C([2H])([2H])C([2H])([2H])C([2H])([2H])Oc2ccc(F)cc2)C[C@@H]31 [Example 9, (6bR,10aS)-1,1-dideuterio-8-(1,1,2,2,3,3-hexadeuterio-3-(4-fluorophenoxy)-propyl)-6b,7,8,9,10,10a-hexahydro-1H-pyrido[3′,4′:4,5]pyrrolo[1,2,3-de]quinoxalin-2(3H)-one]
- inhibition at 0.1 µM (dopamine D1 receptor): 35.2%
- inhibition at 0.3 µM (dopamine D2S receptor): 49.6%
- inhibition at 0.01 µM [1]: 60.1%
- inhibition at 1 µM [2]: 28.4%

Molecule: O=C1CN2c3c(cccc3[C@@H]3CN(CCCOc4ccc(F)cc4)CC[C@@H]32)N1 [Formula A]
- inhibition at 0.1 µM (dopamine D1 receptor): 43.4%
- inhibition at 0.3 µM (dopamine D2S receptor): 53.6%
- inhibition at 0.01 µM [1]: 63%
- inhibition at 1 µM [2]: 33.4%
- effect on ERK2 phosphorylation [4]: marginal effects
- effect on GluR1 phosphorylation [4]: marginal effects
- effect on NR2B phosphorylation [4]: neither the compound of Formula A nor the compound of Formula B has a significant effect
- effect on TH phosphorylation [4]: neither the compound of Formula A nor the compound of Formula B has a significant effect
- early phase acute pain response and late phase delayed inflammatory response (mouse formalin paw test): dose-dependently attenuates both the early phase acute pain response and the late phase delayed inflammatory response
- EC50 blocking DOI-induced head twitch [5]: 0.44 mg/kg, p.o.

Molecule: O=C1CN2c3c(cccc3[C@@H]3CN(CCCC(=O)c4ccc(F)cc4)CC[C@@H]32)N1 [Formula B, 4-((6bR,10aS)-2-oxo-2,3,6b,9,10,10a-hexahydro-1H,7H-pyrido[3′,4′:4,5]pyrrolo[1,2,3-de]quinoxalin-8-yl)-1-(4-fluoro-phenyl)-butan-1-one]
- effect on ERK2 phosphorylation [4]: marginal effects
- effect on GluR1 phosphorylation [4]: marginal effects
- effect on NR2B phosphorylation [4]: neither the compound of Formula A nor the compound of Formula B has a significant effect
- effect on TH phosphorylation [4]: neither the compound of Formula A nor the compound of Formula B has a significant effect
- EC50 blocking DOI-induced head twitch [5]: 0.23 mg/kg, p.o.

Molecule: Cc1cccc(C#Cc2ccccc2)n1 [MPEP, 2-methyl-6-(phenylethynyl)pyridine]
- Marbles Buried [6]: 0.2

Molecule: CN1CC[C@]23c4c5ccc(O)c4O[C@H]2[C@@H](O)C=C[C@H]3[C@H]1C5 [Morphine, reference compound]
- tolerance during repeated dosing (male Sprague-Dawley rats): clear signs of tolerance and dependence
- physical dependence upon cessation of dosing (male Sprague-Dawley rats): clear signs of tolerance and dependence

Molecule: O=C(CCCN1CCC(O)(c2ccc(Cl)cc2)CC1)c1ccc(F)cc1 [haloperidol]
- increase in TH phosphorylation [4]: 400-500%

Molecule: (6bR,10aS)-8-(1,1,3,3-d4-3-(4-fluorophenoxy)propyl)-6b,7,8,9,10,10a-hexahydro-1H-pyrido[3′,4′:4,5]pyrrolo[1,2,3-de]quinoxalin-2(3H)-one [Example 3]
- tolerance during repeated dosing (male Sprague-Dawley rats): does not produce tolerance
- physical dependence upon cessation of dosing (male Sprague-Dawley rats): not to produce a syndrome of physical dependence

From patent publication US12364694B2 (priority 2018, dated 2025)
